Measured values as given in PubChem BioAssay (NCI).
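Assay format: 96-well plates, 48-hour exposure. GI50 marks 50% less growth. The concentration for full growth arrest is given as TGI.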

What was measured:
Assay in all cases: NCI-60 cell line screen, 48 h
[1] = test system: ACHN renal
[2] = test system: 786-0 renal
[3] = test system: M14 melanoma
[4] = test system: HL-60(TB) leukemia
[5] = test system: T-47D breast
[6] = test system: HT29 colon
[7] = test system: PC-3 prostate
[8] = test system: NCI-H460 lung
[9] = test system: NCI/ADR-RES ovarian
[10] = test system: NCI-H23 lung
[11] = test system: EKVX NSCLC
[12] = test system: COLO 205 colon
[13] = test system: MDA-MB-231 breast
[14] = test system: HOP-62 NSCLC
[15] = test system: A549 NSCLC
[16] = test system: UACC-62 melanoma
[17] = test system: UO-31 renal
[18] = test system: U251 CNS
[19] = test system: NCI-H522 lung
[20] = test system: KM12 colon
[21] = test system: MDA-MB-435
[22] = test system: OVCAR-5 ovarian
[23] = test system: IGROV1 ovarian
[24] = test system: SW-620 colon
[25] = test system: CCRF-CEM leukemia
[26] = test system: NCI-H226 lung
[27] = test system: SF-268 CNS
[28] = test system: HOP-92 NSCLC
[29] = test system: OVCAR-4 ovarian
[30] = test system: HCT-116 colon
[31] = test system: SF-539 CNS
[32] = test system: TK-10 renal
[33] = test system: UACC-257 melanoma
[34] = test system: SN12C renal
[35] = test system: OVCAR-8 ovarian
[36] = test system: MALME-3M melanoma
[37] = test system: SK-MEL-5 melanoma
[38] = test system: SF-295 CNS
[39] = test system: SK-MEL-28 melanoma
[40] = test system: BT-549 breast
[41] = test system: A498 renal
[42] = test system: HCC-2998 colon
[43] = test system: RXF 393 renal
[44] = test system: SNB-75 CNS
[45] = test system: HCT-15 colon
[46] = test system: OVCAR-3 ovarian
[47] = test system: MCF7 breast
[48] = test system: SNB-19 CNS
[49] = test system: SK-MEL-2 melanoma
[50] = test system: SK-OV-3 ovarian
[51] = test system: LOX IMVI melanoma
[52] = test system: RPMI-8226 leukemia
[53] = test system: DU-145 prostate
[54] = test system: HS 578T breast
[55] = test system: MOLT-4 leukemia
[56] = test system: CAKI-1 renal

## CN(C)CCCn1c2c(c3ccc(-c4ccn[nH]4)cc3c1=O)C(=O)c1ccccc1-2
[1]
  GI50: 0.0948 µM
  TGI: 1.93 µM
[2]
  GI50: 0.218 µM
  TGI: 1.82 µM
[3]
  GI50: 1.65 µM
  TGI: 13.9 µM
[4]
  GI50: 0.0346 µM
  TGI: 0.771 µM
[5]
  GI50: 0.627 µM
  TGI: 20.9 µM
[6]
  GI50: 0.344 µM
  TGI: 1.99 µM
[7]
  GI50: 1.21 µM
  TGI: 2.72 µM
[8]
  GI50: 0.0363 µM
  TGI: 1.55 µM
[9]
  GI50: 1.48 µM
  TGI: 4.76 µM
[10]
  GI50: 0.243 µM
  TGI: 1.83 µM
[11]
  GI50: 2.91 µM
  TGI: 20.6 µM
[12]
  GI50: 4.92 µM
  TGI: 23.7 µM
[13]
  GI50: 1.27 µM
  TGI: 2.84 µM
[14]
  GI50: 0.181 µM
  TGI: 11.6 µM
[15]
  GI50: 0.0578 µM
  TGI: 1.42 µM
[16]
  GI50: 0.718 µM
  TGI: 18.9 µM
[17]
  GI50: 0.301 µM
  TGI: 1.92 µM
[18]
  GI50: 0.183 µM
  TGI: 1.57 µM
[19]
  GI50: 0.836 µM
  TGI: 18 µM
[20]
  GI50: 0.527 µM
  TGI: 2.08 µM
[21]
  GI50: 10.3 µM
  TGI: 23.7 µM
[22]
  GI50: 1.51 µM
  TGI: 5.47 µM
[23]
  GI50: 0.583 µM
  TGI: 2.51 µM
[24]
  GI50: 0.204 µM
  TGI: 2.17 µM
[25]
  GI50: 0.0291 µM
  TGI: 1.04 µM
[26]
  GI50: 0.273 µM
  TGI: 1.53 µM
[27]
  GI50: 1.85 µM
  TGI: 15 µM
[28]
  GI50: 0.129 µM
  TGI: 10.9 µM
[29]
  GI50: 1.45 µM
  TGI: 4.06 µM
[30]
  GI50: 0.391 µM
  TGI: 2.23 µM
[31]
  GI50: 1.04 µM
  TGI: 6.29 µM
[32]
  GI50: 2.75 µM
  TGI: 18.8 µM
[33]
  GI50: 12.3 µM
  TGI: 29.1 µM
[34]
  GI50: 0.249 µM
  TGI: 10 µM
[35]
  GI50: 0.163 µM
  TGI: 2.27 µM
[36]
  GI50: 0.931 µM
  TGI: 2.47 µM
[37]
  GI50: 0.481 µM
  TGI: 16.4 µM
[38]
  GI50: 0.354 µM
  TGI: 13.6 µM
[39]
  GI50: 2.01 µM
  TGI: 5.65 µM
[40]
  GI50: 3.1 µM
  TGI: 21.1 µM
[41]
  GI50: 10.6 µM
  TGI: 30.9 µM
[42]
  GI50: 10 µM
  TGI: 24 µM
[43]
  GI50: 1.66 µM
  TGI: 9.57 µM
[44]
  GI50: 1.39 µM
  TGI: 17.3 µM
[45]
  GI50: 0.0915 µM
  TGI: 1.48 µM
[46]
  GI50: 6.09 µM
  TGI: 21.5 µM
[47]
  GI50: 0.0378 µM
  TGI: 1.54 µM
[48]
  GI50: 0.332 µM
  TGI: 1.82 µM
[49]
  GI50: 18.2 µM
  TGI: 35.8 µM
[50]
  GI50: 1.21 µM
  TGI: 11.3 µM
[51]
  GI50: 0.104 µM
  TGI: 1.46 µM
[52]
  GI50: 0.115 µM
  TGI: 1.39 µM
[53]
  GI50: 0.197 µM
  TGI: 10.5 µM
[54]
  GI50: 4.9 µM
  TGI: 27.1 µM

## COc1cc2c(cc1OCc1ccccc1)N=CC1C[C@@H](O)CN1C2=O (stereo partly drawn)
[1]
  GI50: 5.83 µM
  TGI: 50 µM
[2]
  GI50: 2.26 µM
  TGI: 7.68 µM
[3]
  GI50: 4.71 µM
  TGI: 19.5 µM
[5]
  GI50: 1.95 µM
  TGI: 7.09 µM
[6]
  GI50: 7.22 µM
  TGI: > 100 µM
[7]
  GI50: 23.1 µM
  TGI: > 100 µM
[8]
  GI50: 10.7 µM
  TGI: > 100 µM
[9]
  GI50: 14.7 µM
  TGI: > 56.7 µM
[10]
  GI50: 7.83 µM
  TGI: 25.3 µM
[11]
  GI50: 24.2 µM
  TGI: 56.4 µM
[12]
  GI50: 3.77 µM
  TGI: > 30.9 µM
[13]
  GI50: 3.01 µM
  TGI: 16.9 µM
[14]
  GI50: 2.4 µM
  TGI: 9.52 µM
[15]
  GI50: 19.2 µM
  TGI: > 100 µM
[16]
  GI50: 0.824 µM
  TGI: 17.1 µM
[17]
  GI50: 3.52 µM
  TGI: 19.2 µM
[18]
  GI50: 2.86 µM
  TGI: > 100 µM
[19]
  GI50: 1.4 µM
  TGI: 7.43 µM
[20]
  GI50: 4.04 µM
  TGI: 32 µM
[21]
  GI50: 3.88 µM
  TGI: 14.7 µM
[22]
  GI50: 3.37 µM
  TGI: > 25.3 µM
[23]
  GI50: 6.89 µM
  TGI: > 60.7 µM
[24]
  GI50: 3.16 µM
  TGI: 31.3 µM
[25]
  GI50: 1.79 µM
  TGI: 12.2 µM
[26]
  GI50: 23.6 µM
  TGI: > 100 µM
[27]
  GI50: 3.41 µM
  TGI: 26.7 µM
[28]
  GI50: 3.99 µM
  TGI: 39 µM
[29]
  GI50: 12.4 µM
  TGI: > 73.5 µM
[30]
  GI50: 9.77 µM
  TGI: 42.2 µM
[31]
  GI50: 2.11 µM
  TGI: 6.76 µM
[32]
  GI50: 2.37 µM
  TGI: 12.7 µM
[33]
  GI50: 19.2 µM
  TGI: > 59.6 µM
[34]
  GI50: 5.77 µM
  TGI: 24.2 µM
[35]
  GI50: 8.35 µM
  TGI: > 74.8 µM
[36]
  GI50: 9.08 µM
  TGI: 26 µM
[37]
  GI50: 2.53 µM
  TGI: 5.38 µM
[55]
  GI50: 2.01 µM
  TGI: 5.51 µM
[38]
  GI50: 4.62 µM
  TGI: > 71.5 µM
[39]
  GI50: 8.23 µM
  TGI: 28.4 µM
[40]
  GI50: 2.47 µM
  TGI: 9.54 µM
[41]
  GI50: 2.06 µM
  TGI: 5.25 µM
[42]
  GI50: 17.1 µM
  TGI: 37.1 µM
[43]
  GI50: 1.7 µM
  TGI: 4.95 µM
[44]
  GI50: 9.08 µM
  TGI: 47 µM
[45]
  GI50: 15.2 µM
  TGI: > 82.1 µM
[46]
  GI50: 2.64 µM
  TGI: 18.2 µM
[47]
  GI50: 5.06 µM
  TGI: > 100 µM
[56]
  GI50: 1.24 µM
  TGI: 6.78 µM
[48]
  GI50: 6.52 µM
  TGI: > 100 µM
[49]
  GI50: 3.08 µM
  TGI: 9.19 µM
[50]
  GI50: 17.5 µM
  TGI: > 71.5 µM
[51]
  GI50: 2.37 µM
  TGI: 6.5 µM
[52]
  GI50: 2.57 µM
  TGI: > 28 µM
[53]
  GI50: 4.04 µM
  TGI: 72.1 µM
[54]
  GI50: 4.84 µM
  TGI: 18.6 µM
